Source: paper PMC5515508, “Benzene Probes in Molecular Dynamics Simulations Reveal Novel Binding Sites for Ligand Design” (The Journal of Physical Chemistry Letters, 2016)
Bridge positions count the residues as written; N and C are the ends. Square brackets hold non-standard residues; d marks the D form. Peptide text beside a SMILES is read from it. R5 = C=CCCC[C@@](C)(N)C(=O)O

Molecular target: T1, MDM2 (1-125) (Homo sapiens, UniProt Q00987)
T1 construct: cleaved MDM2 (1-125) was purified to ~90% purity; GST (N, cleaved yes); made in house; host or cells: Escherichia coli BL21(DE3)
Assay: Competitive fluorescence polarization titration against FAM-labeled 12/1 peptide
Assay type: binding
Settings: read-out: Dissociation constant (Kd)
Procedure: [P] is the protein concentration (MDM2), [L] is the labeled peptide concentration, r is the
Apparent Kd values were determined for a variety of molecules via competitive fluorescence […]
triplicate. Curve-fitting was carried out using Prism 4.0 (GraphPad).

T1 sequence (Q00987 1-125): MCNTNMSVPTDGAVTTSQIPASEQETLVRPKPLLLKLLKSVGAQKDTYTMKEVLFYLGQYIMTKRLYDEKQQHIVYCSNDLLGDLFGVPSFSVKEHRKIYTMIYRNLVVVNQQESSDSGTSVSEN

SMILES | Kd
CC(=O)N[C@H](C(=O)N[C@@H](CO)C(=O)N[C@@H](Cc1ccccc1)C(=O)N[C@]1(C)CCCC=CCCC[C@](C)(C(=O)N[C@@H](CC(C)C)C(=O)N[C@@H](CC(C)C)C(=O)N[C@@H](CO)C(=O)N[C@@H](CCC(=O)O)C(=O)N[C@@H](CC(N)=O)C(=O)N[C@@H](Cc2ccccc2)C(N)=O)NC(=O)[C@H](Cc2c[nH]c3ccccc23)NC(=O)[C@H](Cc2ccc(O)cc2)NC(=O)[C@H](CCC(=O)O)NC1=O)[C@@H](C)O [YS-5] (Ac-TSF[R5]EYW[R5]LLSENF-NH2; staple 4-8) | 11.6 ± 0.9 nM
CC(=O)N[C@H](C(=O)N[C@@H](CO)C(=O)N[C@@H](Cc1ccccc1)C(=O)N[C@]1(C)CCCC=CCCC[C@](C)(C(=O)N[C@@H](CC(C)C)C(=O)N[C@@H](CC(C)C)C(=O)N2CCC[C@H]2C(=O)N[C@@H](CCC(=O)O)C(=O)N[C@@H](CC(N)=O)C(N)=O)NC(=O)[C@H](Cc2c[nH]c3ccccc23)NC(=O)[C@H](Cc2ccc(O)cc2)NC(=O)[C@H](CCC(=O)O)NC1=O)[C@@H](C)O [YS-3] (Ac-TSF[R5]EYW[R5]LLPEN-NH2; staple 4-8) | 36.1 ± 2.9 nM
CC(=O)N[C@H](C(=O)N[C@@H](CO)C(=O)N[C@@H](Cc1ccccc1)C(=O)N[C@]1(C)CCCC=CCCC[C@](C)(C(=O)N[C@@H](CC(C)C)C(=O)N[C@@H](CC(C)C)C(=O)N[C@@H](CO)C(=O)N[C@@H](CCC(=O)O)C(=O)N[C@@H](CC(N)=O)C(=O)N[C@@H](Cc2ccc(O)cc2)C(N)=O)NC(=O)[C@H](Cc2c[nH]c3ccccc23)NC(=O)[C@H](Cc2ccc(O)cc2)NC(=O)[C@H](CCC(=O)O)NC1=O)[C@@H](C)O [YS-6] (Ac-TSF[R5]EYW[R5]LLSENY-NH2; staple 4-8) | 8.8 ± 0.6 nM
CC(=O)N[C@H](C(=O)N[C@@H](CO)C(=O)N[C@@H](Cc1ccccc1)C(=O)N[C@]1(C)CCCC=CCCC[C@](C)(C(=O)N[C@@H](CC(C)C)C(=O)N[C@@H](CC(C)C)C(=O)N2CCC[C@H]2C(=O)N[C@@H](CCC(=O)O)C(=O)N[C@@H](CC(N)=O)C(=O)N[C@@H](C)C(N)=O)NC(=O)[C@H](Cc2c[nH]c3ccccc23)NC(=O)[C@H](Cc2ccc(O)cc2)NC(=O)[C@H](CCC(=O)O)NC1=O)[C@@H](C)O [YS-4] (Ac-TSF[R5]EYW[R5]LLPENA-NH2; staple 4-8) | 27.7 ± 1.3 nM
CC(=O)N[C@H](C(=O)N[C@@H](CO)C(=O)N[C@@H](Cc1ccccc1)C(=O)N[C@]1(C)CCCC=CCCC[C@](C)(C(=O)N[C@@H](CC(C)C)C(=O)N[C@@H](CC(C)C)C(=O)N2CCC[C@H]2C(=O)N[C@@H](CCC(=O)O)C(=O)N[C@@H](CC(N)=O)C(=O)N[C@@H](Cc2ccc(O)cc2)C(N)=O)NC(=O)[C@H](Cc2c[nH]c3ccccc23)NC(=O)[C@H](Cc2ccc(O)cc2)NC(=O)[C@H](CCC(=O)O)NC1=O)[C@@H](C)O [YS-2] (Ac-TSF[R5]EYW[R5]LLPENY-NH2; staple 4-8) | 7.4 ± 1.5 nM
CC(=O)N[C@H](C(=O)N[C@@H](CO)C(=O)N[C@@H](Cc1ccccc1)C(=O)N[C@]1(C)CCCC=CCCC[C@](C)(C(=O)N[C@@H](CC(C)C)C(=O)N[C@@H](CC(C)C)C(=O)N2CCC[C@H]2C(=O)N[C@@H](CCC(=O)O)C(=O)N[C@@H](CC(N)=O)C(=O)N[C@@H](Cc2ccccc2)C(N)=O)NC(=O)[C@H](Cc2c[nH]c3ccccc23)NC(=O)[C@H](Cc2ccc(O)cc2)NC(=O)[C@H](CCC(=O)O)NC1=O)[C@@H](C)O [YS-1] (Ac-TSF[R5]EYW[R5]LLPENF-NH2; staple 4-8) | 9.9 ± 1.5 nM
